Usually inhibition stands for how much of the control response was suppressed. A word on the melting point: it is the temperature, or range, at which the solid turns liquid.

The structures appear in SMILES notation. Some results are limits rather than exact numbers.

From patent US20210101874A1, “MICROBIOCIDAL OXADIAZOLE DERIVATIVES” (SYNGENTA PARTICIPATIONS AG, priority 2017, published 2021) come the findings set out here.

In data set [1] the test system is Glomerella lagenarium (Colletotrichum lagenarium). Put plainly: Glomerella lagenarium (Colletotrichum lagenarium) liquid culture / cucumber / preventative (anthracnose). It is filed as cell-based. The conditions noted are these: Colletotrichum orbiculare; 20 ppm in the applied formulation; conidia in PDB nutrient broth, 24° C.; 3 to 4 days after application; compared to untreated; read-out: disease control (inhibition of growth measured photometrically). A digest of the protocol: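 Cryostored conidia in potato dextrose broth added to compound diluted from DMSO solution, 96-well format. Plates incubated at 24 °C. Growth inhibition read photometrically 3 to 4 days after application, as percent activity versus untreated check.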

In data set [2] the test system is Puccinia recondita f. sp. Tritici. Put plainly: Puccinia recondita f. sp. tritici / wheat / leaf disc preventative (brown rust). It is filed as in vivo. The conditions noted are these: foliar, 200 ppm in the applied formulation, wheat leaf segments cv. Kanzler, inoculated 1 day after application, compared to untreated, assessed 7 to 9 days after application, read-out: disease control. A digest of the protocol:
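Wheat cv. Kanzler leaf segments on agar sprayed with diluted compound, inoculated with brown rust spores 1 day later. Kept at 19° C., 75% rh, 12 h light/dark; percent disease control versus untreated segments scored 7 to 9 days after application, compounds tested at 200 ppm.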

For data set [3] the test system is unchanged. Put plainly: Puccinia recondita f. sp. tritici / wheat / leaf disc curative (brown rust). The note with it: foliar, 200 ppm in the applied formulation, wheat leaf segments cv. Kanzler, applied 1 day after inoculation, compared to untreated, assessed 6 to 8 days after application, read-out: disease control. It counts as in vivo. A digest of the protocol: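 Spray application came one day after spore inoculation of Kanzler wheat leaf segments kept on agar. Conditions: 19° C, 75% relative humidity, dark before treatment and 12 h light/12 h dark after. Efficacy = % disease control compared with untreated, 6–8 days post-application.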

The compound `CON(Cc1ccc(-c2noc(C(F)(F)F)n2)cc1)S(=O)(=O)C1CC1` [Compound 1.9, N-methoxy-N-[[4-[5-(trifluoromethyl)-1,2,4-oxadiazol-3-yl]phenyl]methyl] cyclopropanesulfonamide] gave a melting point of 73 to 75 °C. In addition, the inhibition at 20 ppm in data set [1] was at least 80%.
For `CCCNS(=O)(=O)N(Cc1ccc(-c2noc(C(F)(F)F)n2)cc1)C1CC1` [Compound 1.21, 3-[4-[[cyclopropyl (propylsulfamoyl)amino]methyl]phenyl]-5-(trifluoromethyl)-1,2,4-oxadiazole], the melting point lay within 70 to 73 °C. Further, the inhibition at 20 ppm in data set [1] is at least 80%.
Regarding `CCS(=O)(=O)NCc1ccc(-c2noc(C(F)(F)F)n2)cc1F` [Compound 2.25, N-[[2-fluoro-4-[5-(trifluoromethyl)-1,2,4-oxadiazol-3-yl]phenyl]methyl] ethanesulfon-amide], the pest or weed control at 200 ppm in data set [2] and in data set [3] was at least 80% each time. Further, the inhibition at 20 ppm in data set [1] is at least 80%.
As for `CS(=O)(=O)NCc1ccc(-c2noc(C(F)(F)F)n2)c(F)c1` [Compound 2.26, N-[[3-fluoro-4-[5-(trifluoromethyl)-1,2,4-oxadiazol-3-yl]phenyl]methyl] methanesulfon-amide], the pest or weed control at 200 ppm in data set [2] and in data set [3] was at least 80% in each case. Besides, the inhibition at 20 ppm in data set [1] is at least 80%.
For `CS(=O)(=O)NCc1ccc(-c2noc(C(F)(F)F)n2)cc1F` [Compound 2.27, N-[[2-fluoro-4-[5-(trifluoromethyl)-1,2,4-oxadiazol-3-yl]phenyl]methyl] methanesulfon-amide], the pest or weed control at 200 ppm in data set [2] and in data set [3] was at least 80% throughout. Also, the inhibition at 20 ppm in data set [1] was at least 80%.
Consider `CNS(=O)(=O)NCc1ccc(-c2noc(C(F)(F)F)n2)c(F)c1` [Compound 2.28, 1-[3-fluoro-4-[5-(trifluoromethyl)-1,2,4-oxadiazol-3-yl]phenyl]-N-(methylsulfamoyl) methanamine], for which the pest or weed control at 200 ppm in data set [2] and in data set [3] was at least 80% throughout. Further, in data set [1], the inhibition at 20 ppm was at least 80%.
Consider `CNS(=O)(=O)NCc1ccc(-c2noc(C(F)(F)F)n2)cc1F` [Compound 2.29, 1-[2-fluoro-4-[5-(trifluoromethyl)-1,2,4-oxadiazol-3-yl]phenyl]-N-(methylsulfamoyl) methanamine], for which the pest or weed control at 200 ppm in data set [2] and in data set [3] was at least 80% throughout. The inhibition at 20 ppm in data set [1] was at least 80%.
`CN(C)S(=O)(=O)NCc1ccc(-c2noc(C(F)(F)F)n2)c(F)c1` [Compound 2.30, 3-[4-[(dimethyl-sulfamoylamino)methyl]-2-fluoro-phenyl]-5-(trifluoromethyl)-1,2,4-oxadiazole]: the pest or weed control at 200 ppm in data set [2] and in data set [3] was at least 80% each time. In addition, the inhibition at 20 ppm in data set [1] is at least 80%.
On to `CN(C)S(=O)(=O)NCc1ccc(-c2noc(C(F)(F)F)n2)cc1F` [Compound 2.31, 3-[4-[(dimethyl-sulfamoylamino)methyl]-3-fluoro-phenyl]-5-(trifluoromethyl)-1,2,4-oxadiazole], for which the pest or weed control at 200 ppm in data set [2] and in data set [3] was at least 80% throughout. The inhibition at 20 ppm in data set [1] is at least 80%.
In the case of `C=CCS(=O)(=O)NCc1ccc(-c2noc(C(F)(F)F)n2)cc1F` [Compound 2.32, N-[[2-fluoro-4-[5-(trifluoromethyl)-1,2,4-oxadiazol-3-yl]phenyl]methyl] prop-2-ene-1-sulfonamide], the pest or weed control at 200 ppm in data set [2] and in data set [3] was at least 80% throughout. Also, the inhibition at 20 ppm in data set [1] was at least 80%.
As for `COCCS(=O)(=O)NCc1ccc(-c2noc(C(F)(F)F)n2)cc1F` [Compound 2.34, N-[[2-fluoro-4-[5-(trifluoromethyl)-1,2,4-oxadiazol-3-yl]phenyl]methyl]-2-methoxy-ethanesulfon-amide], the pest or weed control at 200 ppm in data set [2] and in data set [3] was at least 80% each time. Also, the inhibition at 20 ppm in data set [1] was at least 80%.
Turning to `C/C=C/S(=O)(=O)NCc1ccc(-c2noc(C(F)(F)F)n2)cc1F` [Compound 2.36, (E)-N-[[2-fluoro-4-[5-(trifluoromethyl)-1,2,4-oxadiazol-3-yl]phenyl]methyl] prop-1-ene-1-sulfonamide], the pest or weed control at 200 ppm in data set [2] and in data set [3] was at least 80% throughout. Besides, in data set [1], the inhibition at 20 ppm was at least 80%.
With `Cn1ccc(S(=O)(=O)NCc2ccc(-c3noc(C(F)(F)F)n3)cc2)n1` [Compound 3.10, 1-methyl-N-[[4-[5-(trifluoromethyl)-1,2,4-oxadiazol-3-yl]phenyl]methyl] pyrazole-3-sulfonamide], the pest or weed control at 200 ppm in data set [2] and in data set [3] was at least 80% in each case. Further, the inhibition at 20 ppm in data set [1] was at least 80%.
As for `Cn1ccc(S(=O)(=O)NCc2ccc(-c3noc(C(F)(F)F)n3)c(F)c2)n1` [Compound 3.14, N-[[3-fluoro-4-[5-(trifluoromethyl)-1,2,4-oxadiazol-3-yl]phenyl]methyl]-1-methyl-pyrazole-3-sulfonamide], the pest or weed control at 200 ppm in data set [2] and in data set [3] was at least 80% each time. In addition, the inhibition at 20 ppm in data set [1] was at least 80%.
Take `O=S(=O)(NCc1ccc(-c2noc(C(F)(F)F)n2)c(F)c1)N1CCCC1` [Compound 3.17, N-[[3-fluoro-4-[5-(trifluoromethyl)-1,2,4-oxadiazol-3-yl]phenyl]methyl] pyrrolidine-1-sulfonamide]: the pest or weed control at 200 ppm in data set [2] and in data set [3] was at least 80% each time. Besides, the inhibition at 20 ppm in data set [1] is at least 80%.
Turning to `O=S(=O)(NCc1ccc(-c2noc(C(F)(F)F)n2)c(F)c1)C1CC1` [Compound 3.19, N-[[3-fluoro-4-[5-(trifluoromethyl)-1,2,4-oxadiazol-3-yl]phenyl]methyl] cyclopropanesulfon-amide], the pest or weed control at 200 ppm in data set [2] and in data set [3] was at least 80% throughout. Also, the inhibition at 20 ppm in data set [1] is at least 80%.
With `O=S(=O)(CC1CCOC1)NCc1ccc(-c2noc(C(F)(F)F)n2)c(F)c1` (stereo not drawn) [Compound 3.20, N-[[3-fluoro-4-[5-(trifluoromethyl)-1,2,4-oxadiazol-3-yl]phenyl]methyl]-1-tetrahydrofuran-3-yl-methanesulfonamide], the pest or weed control at 200 ppm in data set [2] and in data set [3] was at least 80% throughout. Besides, in data set [1], the inhibition at 20 ppm was at least 80%.
Consider `O=S(=O)(CC1CC1)NCc1ccc(-c2noc(C(F)(F)F)n2)c(F)c1` [Compound 3.21, 1-cyclopropyl-N-[[3-fluoro-4-[5-(trifluoromethyl)-1,2,4-oxadiazol-3-yl]phenyl]methyl] methanesulfonamide], for which the pest or weed control at 200 ppm in data set [2] and in data set [3] was at least 80% each time. In data set [1], the inhibition at 20 ppm was at least 80%.
In the case of `Cn1ccc(S(=O)(=O)NCc2ccc(-c3noc(C(F)(F)F)n3)cc2F)n1` [Compound 3.24, N-[[2-fluoro-4-[5-(trifluoromethyl)-1,2,4-oxadiazol-3-yl]phenyl]methyl]-1-methyl-pyrazole-3-sulfonamide], the pest or weed control at 200 ppm in data set [2] and in data set [3] was at least 80% throughout. In addition, the inhibition at 20 ppm in data set [1] was at least 80%.
Consider `O=S(=O)(NCc1ccc(-c2noc(C(F)(F)F)n2)cc1F)N1CCCC1` [Compound 3.27, N-[[2-fluoro-4-[5-(trifluoromethyl)-1,2,4-oxadiazol-3-yl]phenyl]methyl] pyrrolidine-1-sulfonamide], for which the pest or weed control at 200 ppm in data set [2] and in data set [3] was at least 80% each time. Besides, in data set [1], the inhibition at 20 ppm was at least 80%.
For the compound `O=S(=O)(NCc1ccc(-c2noc(C(F)(F)F)n2)cc1F)C1CC1` [Compound 3.29, N-[[2-fluoro-4-[5-(trifluoromethyl)-1,2,4-oxadiazol-3-yl]phenyl]methyl] cyclopropanesulfon-amide], the pest or weed control at 200 ppm in data set [2] and in data set [3] was at least 80% throughout. Moreover, the inhibition at 20 ppm in data set [1] was at least 80%.
For the compound `O=S(=O)(CC1CCOC1)NCc1ccc(-c2noc(C(F)(F)F)n2)cc1F` (stereo not drawn) [Compound 3.30, N-[[2-fluoro-4-[5-(trifluoromethyl)-1,2,4-oxadiazol-3-yl]phenyl]methyl]-1-tetrahydrofuran-3-yl-methanesulfonamide], the pest or weed control at 200 ppm in data set [2] and in data set [3] was at least 80% throughout. Besides, in data set [1], the inhibition at 20 ppm is at least 80%.
For `O=S(=O)(CC1CC1)NCc1ccc(-c2noc(C(F)(F)F)n2)cc1F` [Compound 3.31, 1-cyclopropyl-N-[[2-fluoro-4-[5-(trifluoromethyl)-1,2,4-oxadiazol-3-yl]phenyl]methyl] methanesulfonamide], the pest or weed control at 200 ppm in data set [2] and in data set [3] was at least 80% throughout. In addition, in data set [1], the inhibition at 20 ppm was at least 80%.
Turning to `O=S(=O)(Cc1ccccc1)Nc1ccc(-c2noc(C(F)(F)F)n2)cc1` [Compound 3.34, 1-phenyl-N-[4-[5-(trifluoromethyl)-1,2,4-oxadiazol-3-yl]phenyl]methane-sulfonamide], the melting point fell in the range of 125 to 135 °C. Further, the inhibition at 20 ppm in data set [1] is at least 80%.
